Drawing on PubChem BioAssay (NCI), this text covers TGI for 39 molecules.

The experiment deals with TK-10 renal. The experiment in a line: NCI-60 cell line screen, 48 h.

The structures appear in SMILES notation.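 Briefly, cells in 96-well plates were exposed to five compound concentrations for 48 h, and endpoints were estimated by linear interpolation. TGI: concentration producing complete growth inhibition.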

`N#CC1=C(N2CCCC2)NC(=O)CC1=O`: the TGI was more than 100 µM.

For `CC1=C2C3=C(C)C(=O)C(C)(C)CC[C@@]3(C)[C@]2(C)CCC(C)(C)C1=O`, the TGI was more than 100 µM.

Molecule `Cc1ccc2nc3ccccc3c(C3C4C(=O)N(c5ccc(Br)cc5Cl)C(=O)C4ON3C(C(N)=O)c3ccccc3)c2c1` (centres undefined) displayed a TGI of more than 25 µM.

Molecule `CCC1c2[nH]c3ccccc3c2C[C@H]2C(=O)NC(CCC(=O)OC(C)(C)C)C(=O)N12` (some centres undefined) returned a TGI of more than 100 µM.

In turn, `NC(N)=N/N=C/c1c(Cl)nc2sccn12` had a TGI of more than 100 µM.

As to `O=C(CC(=O)n1nc(-c2ccccc2)c(N=Nc2ccc(Cl)cc2)c1-c1ccccc1)Nc1cccc(Cl)c1`, the TGI is more than 100 µM.

In turn, `Cn1c(=O)c2c(nc(NCCCCl)n2CC(=O)NCCCCl)n(C)c1=O` displayed a TGI of more than 100 µM.

Consider `CCSc1nc(N2CCOCC2)c2cn[nH]c2n1`, for which the TGI is more than 100 µM.

The molecule `C/C(=N\NC(=S)N1CC2CCC(CC2)C1)c1ccncn1` came in with a TGI of 2.56 µM.

Regarding `O=C(CNc1ccc(Cl)cc1)Nn1c(-c2ccccc2)nc2ccccc2c1=O`, the TGI is 30.5 µM.

With `O=C(c1ccc(Cl)cc1Cl)N(C(=O)N1CCCCC1)c1ccccc1`, the TGI was more than 100 µM.

In turn, `O=c1[nH]nc(-c2cccc(Br)c2)[nH]1` returned a TGI of more than 100 µM.

In turn, `CC(=O)O[C@@H]1C=C(C)[C@H](CBr)O[C@@]2(C)CC[C@H](Br)C(C)(C)[C@H]12` came in with a TGI of more than 100 µM.

The molecule `CC(=O)[C@]1(O)Cc2c(O)c3c(c(O)c2C(OC2OC(C)C(O)C(O)C2F)C1)C(=O)c1ccccc1C3=O` (some centres undefined) returned a TGI of 71.3 µM.

As for `c1ccc2c(c1)nc1n2CNCC1`, the TGI is more than 100 µM.

Molecule `Cc1cccc2c(N)c3cccc(C(=O)NCCCNCCN)c3nc12` displayed a TGI of 51.7 µM.

Consider `C=C1CC[C@@]2(OC1)OC1C[C@H]3[C@@H]4CC=C5C[C@@H](O)CC(OC6OCC(OC(=O)[C@@H](O)[C@@H](C)CC)C(OC(C)=O)C6OC6OC(C)C(O)C(O)C6O)[C@]5(C)[C@H]4CC[C@]3(C)C1[C@@H]2C` (some centres undefined), for which the TGI is 3.87 µM.

As for `CN1CCC(OC(=O)Oc2ccccc2)(c2ccccc2)CC1`, the TGI stood at 37.7 µM.

The molecule `Nc1nc(Cl)cc(NCC2(CO)CC(OCc3ccccc3)C2)n1` (centres undefined) returned a TGI of more than 100 µM.

Take `O=[N+]([O-])C(C(Cl)=C(Cl)Cl)=C(N1CCOCC1)N1CCOCC1`: the TGI is more than 100 µM.

For `Cc1c(Cc2ccccc2)n(COCCCO)c(=O)[nH]c1=O`, the TGI was more than 100 µM.

With `Cc1cc(NS(=O)(=O)c2ccc(N=Nc3c(O)c(C(=O)O)cc4ccccc34)cc2)nc(C)n1`, the TGI is more than 100 µM.

In turn, `CCOC(=O)N/N=C(/N)Cc1ccccc1` had a TGI of more than 100 µM.

As to `O=C(CC(=O)N(C(=O)c1ccccc1)c1ccc(Cl)cc1)N/N=C\c1cc(N=Nc2ccccc2Cl)ccc1O`, the TGI is more than 100 µM.

`Cc1[nH]c(=O)[nH]c(=S)c1C(=O)NC(C)(CO)CO` gave a TGI of more than 100 µM.

`Cc1oc2nc(N(C)C)nc(Cl)c2c1C` registered a TGI of more than 100 µM.

Take `C[N+](C)(N)CCC[N+](C)(C)N`: the TGI is more than 100 µM.

As to `O=C(Nc1ccc2nc(-c3ccccc3)cn2c1)Oc1ccccc1`, the TGI was more than 100 µM.

Molecule `O=C1NNC(=O)C2C3c4ccccc4C(c4ccccc43)C12` (centres undefined) gave a TGI of more than 100 µM.

In turn, `CCN(CC)Cc1cc(Nc2ccnc3ccc4c(nnn4C)c23)ccc1O` yielded a TGI of 76 µM.

The molecule `Nc1ccc(C(=O)Nn2c(-c3ccccc3)nc3ccccc3c2=O)cc1` showed a TGI of more than 100 µM.

The molecule `CSc1nc(Cl)c2c(n1)Sc1nc3cc4c(cc3n1C2O)OCO4` (centres undefined) returned a TGI of more than 100 µM.

In the case of `CC(C)NC(=O)OCc1c(COC(=O)NC(C)C)c(-c2ccc[n+](COC(=O)CC(C)(C)C)c2)n2c1CCC2`, the TGI was more than 100 µM.

In turn, `CC(=O)NNc1nc(C)c(C(/C=C/c2cccc([N+](=O)[O-])c2)=N/NC(=S)NN)s1` registered a TGI of more than 100 µM.

`COc1cccc(C2c3cc4c(cc3OC(N3CCCC3)C2C)OCO4)c1` (centres undefined) had a TGI of more than 100 µM.

As for `Cc1nnc([C@@]2(C)CC[C@H]3[C@@H](CC=C4C[C@@H](O)CC[C@@]43C)[C@@H]2CC#N)o1`, the TGI is more than 100 µM.

As to `COc1ccc(-c2c(C(C)=O)c(-c3ccccc3)n(C3OC(COC(C)=O)C(OC(C)=O)C(OC(C)=O)C3OC(C)=O)c(=S)c2C#N)cc1` (centres undefined), the TGI was more than 100 µM.

`CCOC(=O)Cn1sc2ncc([N+](=O)[O-])cc2c1=O` showed a TGI of 32.8 µM.

Regarding `Brc1ccc2c(-c3nc(-c4c[nH]c5ccc(Br)cc45)cs3)c[nH]c2c1`, the TGI was 17.9 µM.
